Test [1] concerns Saccharomyces cerevisiae. In words: Inhibition of Saccharomyces cerevisiae alpha-glucosidase using PNPG as substrate at 200 uM preincubated for 10 mins followed by substrate addition measured after 10 mins.
For test [2], the species on record is Rattus norvegicus. In words: Inhibition of rat intestinal alpha-glucosidase using PNPG as substrate at 200 uM after 30 mins.
For test [3], the target named is T1, Pancreatic alpha-amylase (Sus scrofa) (UniProt P00690).
T1 sequence (whole entry): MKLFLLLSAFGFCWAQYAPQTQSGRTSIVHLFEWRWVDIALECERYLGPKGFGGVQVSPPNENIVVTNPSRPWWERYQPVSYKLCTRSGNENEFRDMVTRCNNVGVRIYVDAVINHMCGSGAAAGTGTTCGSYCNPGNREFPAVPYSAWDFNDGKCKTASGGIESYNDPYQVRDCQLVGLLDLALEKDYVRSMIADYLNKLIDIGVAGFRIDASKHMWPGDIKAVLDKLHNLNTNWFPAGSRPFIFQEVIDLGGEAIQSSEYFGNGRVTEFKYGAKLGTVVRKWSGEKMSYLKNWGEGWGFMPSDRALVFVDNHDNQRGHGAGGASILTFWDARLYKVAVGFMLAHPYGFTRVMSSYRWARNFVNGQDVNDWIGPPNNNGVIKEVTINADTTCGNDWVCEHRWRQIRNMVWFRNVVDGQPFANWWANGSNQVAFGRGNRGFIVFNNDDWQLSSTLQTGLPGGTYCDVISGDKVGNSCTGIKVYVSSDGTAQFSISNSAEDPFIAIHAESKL
In words: Inhibition of pig pancreas alpha-amylase using potato starch as substrate at 200 uM after 15 mins.

Test [4] is described as follows: Inhibition of Saccharomyces cerevisiae alpha-glucosidase using PNPG as substrate preincubated for 10 mins followed by substrate addition measured after 10 mins.

Molecules are shown by their SMILES. pIC50: −log10 of the molar value.

For `CC1(C)CC[C@]2(C(=O)O)CC[C@]3(C)C(=CC[C@@H]4[C@@]5(C)C[C@@H](O)[C@H](O)[C@@](C)(CO)[C@@H]5[C@H](O)C[C@]43C)[C@@H]2C1`, the figures for the inhibition in test [1], in test [2] and in test [3] were 21%, 10.1% and 7.5%, respectively.
With `CC1(C)CC[C@]2(C(=O)O)CC[C@]3(C)C(=CC[C@@H]4[C@@]5(C)C[C@@H](O)[C@H](O)[C@@](C)(CO)[C@@H]5CC[C@]43C)[C@@H]2[C@@H]1O`, the inhibition in test [1] is 4.4%; in test [2], 2.8%; in test [3], 1.7%.
Consider `CC1(C)CC[C@]2(C(=O)O[C@@H]3O[C@H](CO)[C@@H](O)[C@H](O)[C@H]3O)CC[C@]3(C)C(=CC[C@@H]4[C@@]5(C)CC[C@H](O)[C@@](C)(CO)[C@@H]5CC[C@]43C)[C@@H]2[C@@H]1O`, for which the values for the inhibition in test [1], in test [2] and in test [3] were 20.7%, 9.7% and 5.6%, respectively.
Turning to `CC1(C)CC[C@]2(C(=O)O)CC[C@]3(C)C(=CC[C@@H]4[C@@]5(C)C[C@@H](O)[C@H](O)C(C)(C)[C@@H]5CC[C@]43C)[C@@H]2[C@@H]1O`, the inhibition in test [1] stood at 48.2%; in test [2], 7.8%; in test [3], 6.2%.
On to `C[C@H]1O[C@H](O[C@H]2[C@H](O)[C@@H](O)[C@@H](O[C@H]3[C@H](O)[C@@H](O)C(O)O[C@@H]3CO)O[C@@H]2CO)[C@H](O)[C@@H](O)[C@@H]1N[C@H]1C=C(CO)[C@@H](O)[C@H](O)[C@H]1O` (stereo not given in full) [ACARBOSE], for which the inhibition in test [1] amounted to 58.6%; in test [2], 69.3%; in test [3] it was 82.1%. This compound had a pIC50 in test [4] of 3.76.
Regarding `CC1(C)CC[C@]2(C(=O)O)CC[C@]3(C)C(=CC[C@@H]4[C@@]5(C)C[C@@H](O)[C@H](O)[C@@](C)(CO)[C@@H]5CC[C@]43C)[C@@H]2C1`, the inhibition in test [1] is 48.8%; in test [2] it was 4.7%; in test [3] it was 9.7%.
Take `CC1(C)CC[C@]2(C(=O)O[C@@H]3O[C@H](CO)[C@@H](O)[C@H](O)[C@H]3O)CC[C@]3(C)C(=CC[C@@H]4[C@@]5(C)C[C@@H](O)[C@H](O)[C@@](C)(CO)[C@@H]5CC[C@]43C)[C@@H]2C1`: the inhibition in test [1] is 4%; in test [2], 6.4%; in test [3] it was 5.9%.
Taken in the same sequence, the figures for `CC1(C)CC[C@]2(C(=O)O)CC[C@]3(C)C(=CC[C@@H]4[C@@]5(C)C[C@@H](O)[C@H](O)[C@@](C)(COC(=O)[C@H](CC(=O)O)C[C@H]6c7c(cc(O)c(O)c7O)C(=O)O[C@@H]6C(=O)O)[C@@H]5CC[C@]43C)[C@@H]2[C@@H]1O` were 40.1%, 8.5% and 3.3%.
In the case of `CC1=C2C3=CC[C@@H]4[C@@]5(C)C[C@@H](O)[C@H](O)[C@@](C)(CO)[C@@H]5CC[C@@]4(C)[C@]3(C)CC[C@@]2(C(=O)O[C@@H]2O[C@H](CO)[C@@H](O)[C@H](O)[C@H]2O)CC[C@H]1C`, the inhibition is 25.1% in test [1], 7.3% in test [2] and 2.4% in test [3].
On to `CC1(C)CC[C@]2(C(=O)O[C@@H]3O[C@H](CO)[C@@H](O)[C@H](O)[C@H]3O)CC[C@]3(C)C(=CC[C@@H]4[C@@]5(C)C[C@@H](O)[C@H](O)[C@@](C)(COC(=O)[C@@H](CC(=O)O)C[C@H]6c7c(cc(O)c(O)c7O)C(=O)O[C@@H]6C(=O)O)[C@@H]5CC[C@]43C)[C@@H]2[C@@H]1O`, for which the inhibition was 8.2% in test [1], 6.7% in test [2] and 4.4% in test [3].
In test [1], `CC1(C)CC[C@]2(C(=O)O[C@@H]3O[C@H](CO)[C@@H](O)[C@H](O)[C@H]3O)CC[C@]3(C)C(=CC[C@@H]4[C@@]5(C)C[C@@H](O)[C@H](O)[C@@](C)(CO)[C@@H]5CC[C@]43C)[C@@H]2[C@@H]1O` yielded an inhibition of 3.1%.
As to `CC1(C)CC[C@]2(C(=O)O[C@@H]3O[C@H](CO)[C@@H](O)[C@H](O)[C@H]3O)CC[C@]3(C)C(=CC[C@@H]4[C@@]5(C)C[C@@H](O)[C@H](O)C(C)(C)[C@@H]5CC[C@]43C)[C@@H]2[C@@H]1O`, the inhibition was 36.1% in test [1], 7.8% in test [2] and 7.2% in test [3].

In general, inhibition refers to the share of the control response that was lost under treatment. By pIC50 is commonly meant −log10 of the IC50, conventionally taken in molar units. Lower therefore signals a large IC50.

Values taken from ChEMBL document CHEMBL3870342, “New polyhydroxytriterpenoid derivatives from fruits of Terminalia chebula Retz. and their α-glucosidase and α-amylase inhibitory activity” (Bioorg Med Chem Lett, 2017).
